Assay results as given in patent US20240122180A1, “FUNGICIDAL HALOMETHYL KETONES AND HYDRATES AND THEIR MIXTURES” (FMC Corporation, priority 2020, published 2024).

What was measured:
[1] = system: Puccinia recondita f. sp. tritici (the causal agent of wheat leaf rust); experiment: Test B: preventive spray on wheat seedlings, disease rating (100 = 100% control; * 50 ppm, ** 10 ppm, *** 250 ppm); assay type: in vivo; details: wheat seedlings, 100 = 100% disease control
Outline: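 Wheat seedlings sprayed to run-off with compound in acetone/water (50/50) containing 250 ppm PEG400, inoculated next day with Puccinia recondita f. sp. tritici spores. Held 24 h saturated at 20° C, then 6 days at 20° C; disease control rated 0–100 relative to controls.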

[2] = system: Phakopsora pachyrhizi (the causal agent of Asian soybean rust); experiment: Test A: preventive spray on soybean seedlings, visual disease rating (100 = 100% control; * 50 ppm, ** 10 ppm, *** 250 ppm); assay type: in vivo; details: soybean seedlings, 100 = 100% disease control
Outline: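 Soybean seedlings sprayed to run-off with compound suspended in acetone/water with 250 ppm PEG400 surfactant, inoculated next day with P. pachyrhizi spores. Kept 24 h saturated at 22 °C, then 8 days at 22 °C before visual rating of disease control (0-100) relative to controls.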

Compound	Test B disease control rating ([1]; 10 ppm test suspension) [%]	Test A disease control rating ([2]; 10 ppm test suspension) [%]	Test B disease control rating ([1]; 50 ppm test suspension) [%]	Test A disease control rating ([2]; 50 ppm test suspension) [%]
CCOC(=O)c1cnn(Cc2ccc(COCC3(C(F)(F)F)OCCO3)cc2)c1 [compound 141]	0	0	–	–
CCO/C(=C\Oc1ccc(-c2noc(C(F)(F)F)n2)cc1)C(F)(F)F [compound 143]	0	0	–	–
CCO/C(=C\Oc1ccc(C#N)cc1)C(F)(F)F [compound 144]	0	78	–	–
CCOC(=O)c1cnn(Cc2ccc(O/C=C(\OCCO)C(F)(F)F)cc2)c1 [compound 145]	0	82	–	–
CCO/C(=C\Oc1ccc(C=O)cc1)C(F)(F)F [compound 148]	0	0	–	–
CCO/C(=C\Oc1ccc(CNS(=O)(=O)CC)cc1)C(F)(F)F [compound 149]	0	0	–	–
CCO/C(=C\Oc1ccc(CNC(=O)CC)cc1)C(F)(F)F [compound 150]	0	33	–	–
CCO/C(=C\Oc1ccc(Cn2cccn2)cc1)C(F)(F)F [compound 151]	0	0	–	–
CCO/C(=C\Oc1ccc(Cn2nc(C)cc2C)cc1)C(F)(F)F [compound 152]	0	0	–	–
CCOC(=O)c1cn(Cc2ccc(O/C=C(\OCC)C(F)(F)F)cc2)cn1 [compound 153]	0	100	–	–
CCO/C(=C\Oc1ccc(CC#N)cc1)C(F)(F)F [compound 154]	0	0	–	–
CCO/C(=C\Oc1ccc(CSC#N)cc1)C(F)(F)F [compound 155]	0	0	–	–
CCO/C(=C\Oc1ccc(Cn2ccnc2)cc1)C(F)(F)F [compound 156]	0	0	–	–
CCO/C(=C\Oc1ccc(Cn2cncn2)cc1)C(F)(F)F [compound 157]	9	0	–	–
CCOC(=COc1ccc(Cn2ccc(C)n2)cc1)C(F)(F)F [compound 158]	0	0	–	–
CCOC(=O)c1ccc2c(cnn2Cc2ccc(OCC3(C(F)(F)F)OCCO3)cc2)c1 [compound 160]	0	13	–	–
O=C(OCCCCl)c1cnn(Cc2ccc(OCC3(C(F)(F)F)OCCO3)cc2)c1 [compound 161]	0	100	–	–
N#CCNC(=O)c1cnn(Cc2ccc(OCC3(C(F)(F)F)OCCO3)cc2)c1 [compound 164]	0	31	–	–
CCOC(=O)c1cnn(Cc2ccc(OCC3(C(F)(F)F)OCCO3)nc2)c1 [compound 166]	95	100	–	–
CCOC(=O)c1cnn(Cc2ccc(CO/C=C(\OCC)C(F)(F)F)cc2)c1 [compound 167]	0	38	–	–

Compound	Test B disease control rating ([1]; 10 ppm test suspension) [%]	Test A disease control rating ([2]; 10 ppm test suspension) [%]	Test B disease control rating ([1]; 50 ppm test suspension) [%]	Test A disease control rating ([2]; 50 ppm test suspension) [%]
CC(=O)COC(=O)c1cnn(Cc2ccc(OCC3(C(F)(F)F)OCCO3)cc2)c1 [compound 169]	0	100	–	–
N#CCOC(=O)c1cnn(Cc2ccc(OCC3(C(F)(F)F)OCCO3)cc2)c1 [compound 172]	0	100	–	–
FC(F)(F)c1nc(-c2ccc(OCC3(C(F)(F)F)OCCO3)cc2)no1 [compound 173]	0	0	–	–
NCc1ccc(OCC2(C(F)(F)F)OCCO2)cc1 [compound 174]	0	0	–	–
CC(C)C(=O)NCc1ccc(OCC2(C(F)(F)F)OCCO2)cc1 [compound 175]	0	0	–	–
O=C(NCc1ccc(OCC2(C(F)(F)F)OCCO2)cc1)C1CC1 [compound 176]	0	0	–	–
O=Cc1ccc(OCC(O)(O)C(F)(F)F)cc1 [compound 177]	–	–	89	100
OCc1ccc(OCC2(C(F)(F)F)OCCO2)cc1 [compound 178]	0	0	–	–
O=C(NCc1ccc(OCC2(C(F)(F)F)OCCO2)cc1)c1cccc(C(F)(F)F)c1 [compound 179]	0	0	–	–
CCO/C(=C\Oc1ccc(Cn2cc(Cl)cn2)cc1)C(F)(F)F [compound 180]	0	0	–	–
CCOC(=COc1ccc(Cn2ccc(C(F)(F)F)n2)cc1)C(F)(F)F [compound 181]	0	0	–	–
CCO/C(=C\Oc1ccc(Cn2cc(C(F)(F)F)cn2)cc1)C(F)(F)F [compound 182]	0	0	–	–
CCO/C(=C\Oc1ccc(CN2C(=O)c3ccccc3C2=O)cc1)C(F)(F)F [compound 184]	0	0	–	–
CCOC(=O)c1cnn(Cc2ccc(OCC3(C(F)(F)F)OC(=O)C(C)O3)cc2)c1 (stereo not shown) [compound 187]	74	93	–	–
C=CCOC(=O)c1cnn(Cc2ccc(OCC3(C(F)(F)F)OCCO3)cc2)c1 [compound 188]	0	100	–	–
COC(=O)c1ccc(OCC2(C(F)(F)F)OCCO2)cc1 [compound 189]	0	0	–	–
FC(F)(F)C1(COc2ccc(-c3ccccc3)cc2)OCCO1 [compound 190]	0	0	–	–
FC(F)(F)C1(COc2ccc(Oc3ccccc3)cc2)OCCO1 [compound 191]	0	0	–	–
FC(F)(F)C1(COc2ccc(Cc3ccccc3)cc2)OCCO1 [compound 192]	0	0	–	–
CCO/C(=C\Oc1ccc(COC(N)=O)cc1)C(F)(F)F [compound 193]	86	0	–	–

Compound	Test B disease control rating ([1]; 10 ppm test suspension) [%]	Test A disease control rating ([2]; 10 ppm test suspension) [%]	Test B disease control rating ([1]; 50 ppm test suspension) [%]	Test A disease control rating ([2]; 50 ppm test suspension) [%]
CCO/C(=C\Oc1ccc(CO)cc1)C(F)(F)F [compound 195]	0	0	–	–
CCNC(=O)OCc1ccc(O/C=C(\OCC)C(F)(F)F)cc1 [compound 196]	74	0	–	–
O=C(NCC(F)(F)F)c1cnn(Cc2ccc(OCC3(C(F)(F)F)OCCO3)cc2)c1 [compound 197]	0	0	–	–
CN(C)C(=O)c1cnn(Cc2ccc(OCC3(C(F)(F)F)OCCO3)cc2)c1 [compound 198]	0	0	–	–
O=C(OCc1ccccn1)c1cnn(Cc2ccc(OCC3(C(F)(F)F)OCCO3)cc2)c1 [compound 199]	0	100	–	–
O=C(OCc1cccnc1)c1cnn(Cc2ccc(OCC3(C(F)(F)F)OCCO3)cc2)c1 [compound 200]	0	100	–	–
O=C(OCc1ccncc1)c1cnn(Cc2ccc(OCC3(C(F)(F)F)OCCO3)cc2)c1 [compound 201]	0	100	–	–
O=C(OCC(=O)C1CCCCC1)c1cnn(Cc2ccc(OCC3(C(F)(F)F)OCCO3)cc2)c1 [compound 202]	0	100	–	–
COC(=O)COC(=O)c1cnn(Cc2ccc(OCC3(C(F)(F)F)OCCO3)cc2)c1 [compound 203]	0	50	–	–
O=C(OCC1OCCO1)c1cnn(Cc2ccc(OCC3(C(F)(F)F)OCCO3)cc2)c1 [compound 204]	0	100	–	–
CCO/C(=C\Oc1ccc(Cn2cc(C#N)cn2)cc1)C(F)(F)F [compound 205]	0	0	–	–
O=S(=O)(NCc1ccc(OCC2(C(F)(F)F)OCCO2)cc1)C(F)(F)F [compound 207]	0	0	–	–
N#Cc1cnn(Cc2ccc(OCC3(C(F)(F)F)OCCO3)cc2)c1 [compound 209]	0	89	–	–
CCO/C(=C\Oc1ccc(CNC(=O)C(C)C)cc1)C(F)(F)F [compound 210]	0	0	–	–
O=C(CC(F)(F)F)NCc1ccc(OCC2(C(F)(F)F)OCCO2)cc1 [compound 212]	0	44	–	–
COC(C)C(=O)NCc1ccc(OCC2(C(F)(F)F)OCCO2)cc1 (stereo not shown) [compound 214]	0	0	–	–
CCO/C(=C\Oc1ccc(CN2CCCC2=O)cc1)C(F)(F)F [compound 224]	0	0	–	–
CCO/C(=C\Oc1ccc(CN2CCC(C)(C)C2=O)cc1)C(F)(F)F [compound 225]	0	0	–	–
CCO/C(=C\Oc1ccc(Cn2c(=O)oc3ccccc32)cc1)C(F)(F)F [compound 226]	0	0	–	–
